Source: US9738655B2, “Tetrahydroisoquinolines containing substituted azoles as factor XIa inhibitors” (BRISTOL-MYERS SQUIBB COMPANY, priority 2013, dated 2017)
Where a name gives a salt, the structure may show the parent alone.

Each molecule was assayed against purified human Factor XIa (Homo sapiens (Human), UniProt P03951) (assay: Factor XIa enzyme inhibition assay (chromogenic substrate S-2366)). Conditions: not given.
Chain of purified human Factor XIa (P03951 388-625): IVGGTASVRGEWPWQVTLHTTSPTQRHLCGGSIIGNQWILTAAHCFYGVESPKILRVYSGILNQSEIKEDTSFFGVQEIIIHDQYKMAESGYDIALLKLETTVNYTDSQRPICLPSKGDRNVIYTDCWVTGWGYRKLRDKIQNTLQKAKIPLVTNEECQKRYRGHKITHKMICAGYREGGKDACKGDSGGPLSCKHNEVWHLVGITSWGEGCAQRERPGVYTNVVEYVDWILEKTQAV
Chain of purified human Factor XIa (P03951 19-387 partner): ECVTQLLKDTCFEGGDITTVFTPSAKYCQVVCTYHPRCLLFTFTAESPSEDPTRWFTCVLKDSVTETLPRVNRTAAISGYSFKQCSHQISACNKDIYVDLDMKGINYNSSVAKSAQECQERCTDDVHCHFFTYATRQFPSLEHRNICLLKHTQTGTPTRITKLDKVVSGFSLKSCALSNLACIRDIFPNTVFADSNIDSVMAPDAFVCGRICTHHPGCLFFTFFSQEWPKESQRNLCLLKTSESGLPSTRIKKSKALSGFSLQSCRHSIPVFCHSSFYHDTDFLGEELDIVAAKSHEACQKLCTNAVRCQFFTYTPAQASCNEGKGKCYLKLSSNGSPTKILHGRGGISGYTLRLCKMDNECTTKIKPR

Row | Ki | Compound
1 | 5.2 nM | COc1cccc(-c2cccc3c2CCN(C(=O)c2cn(-c4cccc(Cl)c4F)nn2)C3C(=O)Nc2ccc(C(=O)O)cc2)c1F (stereo not drawn) [Example 180, 4-(2-(1-(3-chloro-2-fluorophenyl)-1H-1,2,3-triazole-4-carbonyl)-5-(2-fluoro-3-methoxyphenyl)-1,2,3,4-tetrahydroisoquinoline-1-carboxamido)benzoic acid]

Same assay, conditions: read-out: Factor XIa Ki; measured at 25° C.

Row | Compound | Ki
2 | O=C(O)c1ccc(NC(=O)C2c3cccc(-c4ccc(S(=O)(=O)NC5CC5)cc4)c3CCN2C(=O)c2cn(-c3cccc(Cl)c3F)nn2)cc1 (stereo not drawn) [Example 176, 4-(2-(1-(3-chloro-2-fluorophenyl)-1H-1,2,3-triazole-4-carbonyl)-5-(4-(N-cyclopropylsulfamoyl)phenyl)-1,2,3,4-tetrahydroisoquinoline-1-carboxamido)benzoic acid] | < 5 nM
3 | CN(C)S(=O)(=O)c1cccc(-c2cccc3c2CCN(C(=O)c2cn(-c4cccc(Cl)c4F)nn2)C3C(=O)Nc2ccc(C(=O)O)cc2)c1 (stereo not drawn) [Example 177, 4-(2-(1-(3-chloro-2-fluorophenyl)-1H-1,2,3-triazole-4-carbonyl)-5-(3-(N,N-dimethylsulfamoyl)phenyl)-1,2,3,4-tetrahydroisoquinoline-1-carboxamido)benzoic acid] | < 5 nM
4 | CCOc1ccc(-c2cccc3c2CCN(C(=O)c2cn(-c4cccc(Cl)c4F)nn2)C3C(=O)Nc2ccc(C(=O)O)cc2)cn1 (stereo not drawn) [Example 178, 4-(2-(1-(3-chloro-2-fluorophenyl)-1H-1,2,3-triazole-4-carbonyl)-5-(6-ethoxypyridin-3-yl)-1,2,3,4-tetrahydroisoquinoline-1-carboxamido)benzoic acid, TFA salt] | < 5 nM
5 | O=C(O)c1ccc(NC(=O)C2c3cccc(-c4ccccc4CN4CCOCC4)c3CCN2C(=O)c2cn(-c3cccc(Cl)c3F)nn2)cc1 (stereo not drawn) [Example 179, 4-(2-(1-(3-chloro-2-fluorophenyl)-1H-1,2,3-triazole-4-carbonyl)-5-(2-(morpholinomethyl)phenyl)-1,2,3,4-tetrahydroisoquinoline-1-carboxamido)benzoic acid, TFA salt] | 5.92 nM
6 | O=C(O)c1ccc(NC(=O)C2c3cccc(-c4cnc5[nH]ccc5c4)c3CCN2C(=O)c2cn(-c3cccc(Cl)c3F)nn2)cc1 (stereo not drawn) [Example 181, 4-(2-(1-(3-chloro-2-fluorophenyl)-1H-1,2,3-triazole-4-carbonyl)-5-(1H-pyrrolo[2,3-b]pyridin-5-yl)-1,2,3,4-tetrahydroisoquinoline-1-carboxamido)benzoic acid, TFA salt] | < 5 nM
7 | N#Cc1ccc(-c2cccc3c2CCN(C(=O)c2cn(-c4cccc(Cl)c4F)nn2)C3C(=O)Nc2ccc(C(=O)O)cc2)cn1 (stereo not drawn) [Example 182, 4-(2-(1-(3-chloro-2-fluorophenyl)-1H-1,2,3-triazole-4-carbonyl)-5-(6-cyanopyridin-3-yl)-1,2,3,4-tetrahydroisoquinoline-1-carboxamido)benzoic acid, TFA salt] | < 5 nM
8 | CN(C)c1ncc(-c2cccc3c2CCN(C(=O)c2cn(-c4cccc(Cl)c4F)nn2)C3C(=O)Nc2ccc(C(=O)O)cc2)cn1 (stereo not drawn) [Example 183, 4-(2-(1-(3-chloro-2-fluorophenyl)-1H-1,2,3-triazole-4-carbonyl)-5-(2-(dimethylamino)pyrimidin-5-yl)-1,2,3,4-tetrahydroisoquinoline-1-carboxamido)benzoic acid] | < 5 nM
9 | O=C(O)c1ccc(NC(=O)C2c3cccc(-c4ccc(F)c(C(=O)N5CCCC5)c4)c3CCN2C(=O)c2cn(-c3cccc(Cl)c3F)nn2)cc1 (stereo not drawn) [Example 184, 4-(2-(1-(3-chloro-2-fluorophenyl)-1H-1,2,3-triazole-4-carbonyl)-5-(4-fluoro-3-(pyrrolidine-1-carbonyl)phenyl)-1,2,3,4-tetrahydroisoquinoline-1-carboxamido)benzoic acid] | < 5 nM
10 | O=C(O)c1ccc(NC(=O)C2c3cccc(-c4ccncc4)c3CCN2C(=O)c2cn(-c3cccc(Cl)c3F)nn2)cc1 (stereo not drawn) [Example 186, 4-(2-(1-(3-chloro-2-fluorophenyl)-1H-1,2,3-triazole-4-carbonyl)-5-(pyridin-4-yl)-1,2,3,4-tetrahydroisoquinoline-1-carboxamido)benzoic acid, TFA salt] | < 5 nM
11 | O=C(O)c1ccc(NC(=O)C2c3cccc(C4=CCNCC4)c3CCN2C(=O)c2cn(-c3cccc(Cl)c3F)nn2)cc1 (stereo not drawn) [Example 187, 4-(2-(1-(3-chloro-2-fluorophenyl)-1H-1,2,3-triazole-4-carbonyl)-5-(1,2,3,6-tetrahydropyridin-4-yl)-1,2,3,4-tetrahydroisoquinoline-1-carboxamido)benzoic acid] | < 5 nM
12 | NC(=O)Cc1cccc(-c2cccc3c2CCN(C(=O)c2cn(-c4cccc(Cl)c4F)nn2)C3C(=O)Nc2ccc(C(=O)O)cc2)c1 (stereo not drawn) [Example 188, 4-(5-(3-(2-amino-2-oxoethyl)phenyl)-2-(1-(3-chloro-2-fluorophenyl)-1H-1,2,3-triazole-4-carbonyl)-1,2,3,4-tetrahydroisoquinoline-1-carboxamido)benzoic acid] | < 5 nM

Further lines, results first:

Row | Ki | Compound
13 | < 5 nM | Cn1ncc2ccc(-c3cccc4c3CCN(C(=O)c3cn(-c5cccc(Cl)c5F)nn3)C4C(=O)Nc3ccc(C(=O)O)cc3)cc21 (stereo not drawn) [Example 170, 4-(2-(1-(3-chloro-2-fluorophenyl)-1H-1,2,3-triazole-4-carbonyl)-5-(1-methyl-1H-indazol-6-yl)-1,2,3,4-tetrahydroisoquinoline-1-carboxamido)benzoic acid]
14 | < 5 nM | Cc1nnc(-c2cccc(-c3cccc4c3CCN(C(=O)c3cn(-c5cccc(Cl)c5F)nn3)C4C(=O)Nc3ccc(C(=O)O)cc3)c2)o1 (stereo not drawn) [Example 171, 4-(2-(1-(3-chloro-2-fluorophenyl)-1H-1,2,3-triazole-4-carbonyl)-5-(3-(5-methyl-1,3,4-oxadiazol-2-yl)phenyl)-1,2,3,4-tetrahydroisoquinoline-1-carboxamido)benzoic acid]
15 | < 5 nM | CN(C)c1ccc(-c2cccc3c2CCN(C(=O)c2cn(-c4cccc(Cl)c4F)nn2)C3C(=O)Nc2ccc(C(=O)O)cc2)cn1 (stereo not drawn) [Example 172, 4-(2-(1-(3-chloro-2-fluorophenyl)-1H-1,2,3-triazole-4-carbonyl)-5-(6-(dimethylamino)pyridin-3-yl)-1,2,3,4-tetrahydroisoquinoline-1-carboxamido)benzoic acid]
16 | < 5 nM | NCc1cccc(-c2cccc3c2CCN(C(=O)c2cn(-c4cccc(Cl)c4F)nn2)C3C(=O)Nc2ccc(C(=O)O)cc2)c1 (stereo not drawn) [Example 173, 4-(5-(3-(aminomethyl)phenyl)-2-(1-(3-chloro-2-fluorophenyl)-1H-1,2,3-triazole-4-carbonyl)-1,2,3,4-tetrahydroisoquinoline-1-carboxamido)benzoic acid, TFA salt]
17 | < 5 nM | O=C(O)c1ccc(NC(=O)C2c3cccc(-c4ccc5nccnc5c4)c3CCN2C(=O)c2cn(-c3cccc(Cl)c3F)nn2)cc1 (stereo not drawn) [Example 174, 4-(2-(1-(3-chloro-2-fluorophenyl)-1H-1,2,3-triazole-4-carbonyl)-5-(quinoxalin-6-yl)-1,2,3,4-tetrahydroisoquinoline-1-carboxamido)benzoic acid]
18 | < 5 nM | O=C(O)c1ccc(NC(=O)C2c3cccc(-c4ccc5occc(=O)c5c4)c3CCN2C(=O)c2cn(-c3cccc(Cl)c3F)nn2)cc1 (stereo not drawn) [Example 175, 4-(2-(1-(3-chloro-2-fluorophenyl)-1H-1,2,3-triazole-4-carbonyl)-5-(4-oxo-4H-chromen-6-yl)-1,2,3,4-tetrahydroisoquinoline-1-carboxamido)benzoic acid]
